Measurements from patent US20240199647A1, “ANTI-VIRAL COMPOUNDS” (Aligos Therapeutics, Inc., priority 2022, published 2024).
Like-named read-outs stand apart in the source and are kept apart here.

Columns and labels:
[1] = in vitro; conditions: human
[2] = target: SARS-Cov-2 3CLpro (Severe acute respiratory syndrome coronavirus 2, UniProt P0DTD1); assay: biochemical; conditions: Table A, class symbols, read-out: SARS-Cov-2 (IC50)
[3] = Cytotoxicity in HeLa cells without addition of OC43 virus (in parallel); conditions: human, HeLa cells, without OC43 virus
[4] = test system: human beta-coronavirus OC43; assay: OC43 Coronavirus Assay in HeLa cells (antiviral, cytopathic effect, cell-titer-glo); type: cell-based; conditions: Betacoronavirus 1, OC43, HeLa, Table B, OC43 coronavirus in HeLa cells, read-out: EC50
[5] = test system: SARS-CoV-2 B.1.1.7 lineage; assay: microbe, parasite or virus in culture; type: cell-based; conditions: Severe acute respiratory syndrome coronavirus 2, Table C, SARS-CoV-2 B.1.1.7 in A549-dual_ACE2_TMPRSS2 cells, read-out: A549-dual_ACE2_TMPRSS2 (EC50)

Row | SMILES | CC50 [1] [nM] | IC50 [2] [nM] | CC50 at 6 days [3] [nM] | EC50 ([4]; class symbols) [nM] | EC50 ([5]; class symbols) [nM] | EC50 ([4]; cells given as a bound) [nM] | EC50 ([5]; cells given as a bound) [nM]
1 | CN(C(=O)[C@@H](CC1CC1)NC(=O)C(F)(F)F)[C@@H](CC1CC1)C(=O)N1C[C@@]2(C[C@H]1C#N)Oc1cccnc1NC2=O [Compound 172] | > 1000 | < 20 | > 10000 | 100 to 1000 | 100 to 1000 | – | –
2 | Cc1nnn(C(CC2CC2)C(=O)N(C)[C@@H](CC2CC2)C(=O)N2C[C@@]3(C[C@H]2C#N)Oc2cc(F)cc(F)c2NC3=O)c1C (relative stereo) [Compound 117, (S*)—N—((S)-1-((2R,5'S)-5′-cyano-5,7-difluoro-3-oxo-3,4-dihydrospiro[benzo[b][1,4]oxazine-2,3′-pyrrolidin]-1′-yl)-3-cyclopropyl-1-oxopropan-2-yl)-3-cyclopropyl-2-(4,5-dimethyl-1H-1,2,3-triazol-1-yl)-N-methylpropanamide] | > 1000 | 200 to 2000 | > 10000 | – | – | > 10000 | > 1000
3 | CN(C(=O)[C@@H](Cc1ccc(F)cc1)NC(=O)C(F)(F)F)[C@@H](CC1CC1)C(=O)N1C[C@@]2(C[C@H]1C#N)Oc1cccnc1NC2=O [Compound 200] | > 1000 | < 20 | > 10000 | 100 to 1000 | < 100 | – | –
4 | C[C@H](NC(=O)C(F)(F)F)C(=O)N(C)[C@@H](CC1CC1)C(=O)N1C[C@@]2(C[C@H]1C#N)Oc1cc(Cl)cnc1NC2=O [Compound 147] | > 1000 | < 20 | > 10000 | < 100 | < 100 | – | –
5 | CN(C(=O)[C@H](CC1CC1)NC(=O)C(F)(F)F)[C@@H](CC1CC1)C(=O)N1C[C@@]2(C[C@H]1C#N)Oc1cc(Cl)cc(F)c1NC2=O [Compound 59] | > 1000 | < 20 | > 10000 | < 100 | < 100 | – | –
6 | CC(C)C[C@@H](C(=O)N1C[C@@]2(C[C@H]1C#N)Oc1cccnc1NC2=O)N(C)C(=O)[C@H](C)NC(=O)C(F)(F)F [Compound 65] | > 1000 | < 20 | > 10000 | 100 to 1000 | 100 to 1000 | – | –
7 | CN(C(=O)[C@H](CC1CC1)NC(=O)C(F)(F)F)[C@@H](CC1CC1)C(=O)N1C[C@@]2(C[C@H]1C#N)Oc1cccnc1CNC2=O [Compound 121, (S)—N—((S)-1-((2R,5'S)-5′-cyano-3-oxo-4,5-dihydro-3H-spiro[pyrido[2,3-f][1,4]oxazepine-2,3′-pyrrolidin]-1′-yl)-3-cyclopropyl-1-oxopropan-2-yl)-3-cyclopropyl-N-methyl-2-(2,2,2-trifluoroacetamido)propanamide] | > 1000 | < 20 | > 10000 | < 100 | 100 to 1000 | – | –
8 | C[C@H](c1ccccc1)[C@H](NC(=O)C(F)(F)F)C(=O)N(C)[C@@H](CC1CC1)C(=O)N1C[C@@]2(C[C@H]1C#N)Oc1cccnc1NC2=O [Compound 193] | > 1000 | 20 to 200 | > 10000 | 100 to 1000 | 100 to 1000 | – | –
9 | CN(C(=O)[C@H](CC1CC1)NC(=O)C(F)(F)F)[C@@H](CC1CC1)C(=O)N1C[C@@]2(C[C@H]1C#N)Oc1ccc(F)cc1NC2=O [Compound 15, (S)—N—((S)-1-((2R,5'S)-5′-cyano-6-fluoro-3-oxo-3,4-dihydrospiro[benzo[b][1,4]oxazine-2,3′-pyrrolidin]-1′-yl)-3-cyclopropyl-1-oxopropan-2-yl)-3-cyclopropyl-N-methyl-2-(2,2,2-trifluoroacetamido)propanamide] | > 1000 | < 20 | > 10000 | < 100 | < 100 | – | –
10 | CC(C)C[C@@H](C(=O)N1C[C@]2(C[C@H]1C#N)C(=O)Nc1c3ccccc3nn12)N(C)C(=O)[C@H](C)NC(=O)C(F)(F)F [Example 27, (2S)—N-[(2S)-1-[(3R,5'S)-5′-cyano-2-oxo-1H-spiro[imidazo[1,2-b]indazole-3,3′-pyrrolidin]-1′-yl]-4-methyl-1-oxopentan-2-yl]-N-methyl-2-(2,2,2-trifluoroacetamido)propanamide] | > 1000 | 20 to 200 | > 10000 | 1000 to 10000 | – | – | > 1000
